Usually Ki stands for the dissociation constant of the complex between target and ligand, obtained from inhibition or displacement. Broadly, the IC50 is the concentration at which inhibition is half-maximal. The term logD denotes lipophilicity at a set pH, counting ionised and neutral species. Low values mean a more hydrophilic compound, high ones a more lipophilic compound. One may read the IC20 as the concentration needed for an effect of 20%. The IC80 is the concentration at which the effect reaches the 80% level.

Consider 4 compounds from paper PMC4643876, “Picomolar Inhibition of Plasmepsin V, an Essential Malaria Protease, Achieved Exploiting the Prime Region” (PLoS ONE, 2015).

Where “and” joins values, the source holds several entries; their conditions need not be identical. Identical values can stand only once. Like-named read-outs stand apart in the source and are kept apart here.

The subject of series [1] is Plasmodium falciparum strain 3D7. Kind of series: Parasite growth inhibition by flow cytometry, strain 3D7. Particulars: for LD50 growth inhibition: asynchronous 3D7 cultures, about 4 days, 0.195–200 μM, flow cytometry. The format is cell-based.
In a further series the target is T1, Plasmepsin V (PmV) (Plasmodium falciparum, UniProt Q8I6Z5).
T1 construct: PmV was purified directly from parasites; made in house
The experiment in a line: PmV inhibition, fluorimetric PExEl cleavage assay. It is filed as biochemical. As to conditions: for IC50: read-out: IC50. As for the experimental part: Saponin was added to culture to a final 0.05%; parasites were recovered via centrifugation at 4°C after 5 min of incubation on ice; parasite pellets were then washed twice in cold PBS and either immediately lysed or stored at -80°C until lysis. Parasites were lysed via three pulses of ultra-sonication of 10 sec duration, in PBS containing 0.5% Triton-X100 (TX-100). […] Quick washes of the resin were performed either in batches, or over columns, to remove unbound cellular material (four with ice-cold 0.5% TX-100 in PBS and a final one with cold PBS). Resin-bound PmV was stored in PBS at 4°C and used within 2–3 weeks, larger batches had Glycerol added to them, up to 10%, and were stored at -20°C for up to 5 months. […] Quality and purity of PmV batches were routinely confirmed by protein electrophoresis. Quantification of PmV was performed via densitometry analysis of stained protein SDS-PAGE gels relative to BSA standard curves.
PExEl cleavage activity was monitored by fluorimetric measurement of PExEl cleavage, as previously reported. […] PmV activity was performed at 37°C in 50 mM Tris-Maleate, pH 6.5, 50 mM NaCl, 0.05% TX-100, 2 mM DTT. Assays were routinely conducted in triplicate. Bead-bound enzyme was added to the reaction using ‘end-cut’ micropipette tips in order to facilitate sampling the suspension.
Inhibitory activities were measured in the presence of a substrate concentration of 3 μM by serial dilution of each compound in triplicates. […] Titration curves of the inhibitors were routinely composed of eleven points from 10 μM to 0.1 pM. PmV concentration was kept in the order of low picomolar (≤10 pM). […] Analysis of the half inhibitory activity (IC50) was performed by sigmoidal interpolation of the starting velocities of the hydrolytic reactions for each condition. Starting velocities were calculated on the initial linear range of the product progression curves. […] Data are presented with error bars indicating the standard deviation of three independent activity curves.

The conditions of series [2]: pH 7.4.
A further series deals with T2, PmV-GFP (Plasmodium falciparum, UniProt Q8I6Z5).
T2 construct: parasite cellular lysates of DC6 a clone that constitutively expresses PmV-GFP; expressed in transfected cells; host or cells: Plasmodium falciparum clone DC6 (3D7-derived; PmV-GFP under the native PmV promoter), crude lysate
The experiment in a line: Pull-down / co-precipitation of PmV-inhibitor complexes from DC6 lysates. It is filed as binding. Here is the method: Pull-down experiments were performed using parasite cellular lysates of DC6 a clone that constitutively expresses PmV-GFP [15]. […] [i] […] An anti-GFP antibody, 3E6, was added with protein A-agarose as above described and incubated 1 h at 4°C, with gentle agitation. The resin was washed 3 times with cold PBS and then boiled in Laemmli sample buffer for later biotin detection in a dot-blot format. [ii] […] Incubation was carried out for 1 h at 4°C gently maintaining the beads in suspension. Then the resin was washed 3 times with cold PBS and boiled in Laemmli sample buffer for subsequent protein western blot analysis of the pull-down material.

The test system of the next series is HRPII PExEl processing. Kind of series: HRPII PExEl processing, western blot. It is filed as cell-based, Plasmodium falciparum. Particulars: 20 μM, about 27 h, 3D7. Here is the method:
Protein analyses to detect PmV, HRPII and BiP via stained protein gels and blots, densitometry, antibody detection or HRP-conjugated Streptavidin, were conducted as previously described.
Fig 16 Inhibition results in impairment of the PExEl secretion. (A) Microscopy analysis of the distribution of the PExEl-export fluorescent probe. Live parasites expressing HRPII-GFP, used as a probe for PExEl secretion, are imaged in the presence of Hoechst nuclear staining. Bright field (grey scale), nuclei (blue channel), HRPII-GFP (green) and the merged image of the fluorescent channels are presented from left to right. (panel a) untreated culture; (b) mock DMSO-treated culture; (c-f) culture treated with 20 μM 29 solubilized in DMSO (c) mid ring, (d) late-ring, (e) early-trophozoite, (f) late-trophozoite. Bar is 2 μm. Impairment of HRPII-GFP PExEl-dependent export is observed in these representative images of live parasites and the GFP signal appears concentrated in regions of immediate proximity to the nuclei. […] (B) HRPII PExEl processing is inhibited by Compound 29. Western blot analysis of HRPII contained in parasites after saponin treatment. Arrows show the pro-form (p) and the mature (m) protein HRPII. 3D7 culture was incubated as described in Materials and Methods with 20 μM Compound 29 for about 27 h.
For orientation: In western blotting, separated proteins are transferred to a membrane and probed.

Series [3] has as its system clone G6 (PmV knock-down). Kind of series: Parasite growth inhibition, clone G6 (PmV-GFP-DD, PmV knock-down). As to conditions: clone G6, absence of Shield-1.
Experimental: (§1) Growth impairment of parasites in culture was tested as follows. Asynchronous erythrocyte cultures of Plasmodium falciparum strain 3D7 were initiated at a starting parasitemia of 0.2–0.5% in the presence of titration curves of the PmV inhibitors generated in this work. […] Cultures, live or fixed, were analyzed at day 3 and/or 4 after initiation, approximately~ 2 cell cycles of 3D7 strain. Parasitemia was measured by flow cytometry analysis of parasitized cells stained with 0.4 μg/ml Acridine Orange or 1 μM Topro 3 (Life Technology Invitrogen), using BD Fortessa or FACS Calibur instruments.
(B) Growth inhibition curves of parasites expressing different levels of PmV: 3D7 (blue dots and line), DC6 (green dots and line), G6 (PmV knock-down) (red dots and line) and #3 (Overexpressing PmV) (purple dots and line) were analysed in parallel. Growth inhibition was measured in triplicates. Dots represent actual data, lines the sigmoidal fitting obtained by non-linear regression analysis. […] Error bars show the standard deviation of the data.
The test system of the next series is clone DC6. Kind of series: Parasite growth inhibition, clone DC6 (PmV-GFP, native promoter).
Series [4] has as its system HRPII-GFP PExEl-dependent secretion. Kind of series: In vivo inhibition of PExEl export, live microscopy of HRPII-GFP clone. The format is cell-based, Plasmodium falciparum. Particulars: 20 μM, 27 h, ring to trophozoite stages. Here is the method:
Parasites were imaged live or fixed. Fixation in 4% formaldehyde and 0.0075% glutaraldehyde, cell permeabilization, antibody incubation, and mounting were as previously described. Before imaging of HRPII-GFP clone, we treated with Compound 29 highly synchronized parasites at late trophozoite stage with inhibitors for 27 h, and then analyzed the distribution of the exported probe in newly invaded red blood cells. Images were acquired using a fluorescence microscope (BX51 Olympus). Live parasites were counter-stained using the nuclear dye Hoechst 33342 (Life Technologies—Molecular Probes).
Fig 16 Inhibition results in impairment of the PExEl secretion. (A) Microscopy analysis of the distribution of the PExEl-export fluorescent probe. Live parasites expressing HRPII-GFP, used as a probe for PExEl secretion, are imaged in the presence of Hoechst nuclear staining. Bright field (grey scale), nuclei (blue channel), HRPII-GFP (green) and the merged image of the fluorescent channels are presented from left to right. (panel a) untreated culture; (b) mock DMSO-treated culture; (c-f) culture treated with 20 μM 29 solubilized in DMSO (c) mid ring, (d) late-ring, (e) early-trophozoite, (f) late-trophozoite. Bar is 2 μm. […]

The test system of series [5] is clone #3 (Overexpressing PmV). The experiment in a line: Parasite growth inhibition, clone #3 (overexpressing PmV-GFP).
Experimental: as §1
(§2) DC6 clone expresses PmV-GFP chimera under regulation of the native promoter [15]; G6 clone, the PmV-GFP-DD chimera under regulation of the native promoter (this paper) and #3 clone (episomally expressing PmV-GFP chimera under Hsp86-5', a strong and constitutive promoter) [15]. […] (B) Growth inhibition curves of parasites expressing different levels of PmV: 3D7 (blue dots and line), DC6 (green dots and line), G6 (PmV knock-down) (red dots and line) and #3 (Overexpressing PmV) (purple dots and line) were analysed in parallel. Growth inhibition was measured in triplicates. Dots represent actual data, lines the sigmoidal fitting obtained by non-linear regression analysis. […] Error bars show the standard deviation of the data.
Another series concerns PmV. As to conditions: different substrate at […], different buffer; ref [19], [20]; read-out: IC50, published value; cited from earlier work.
The mark [6] stands for this setting: 3 μM HRPII-PExEl substrate, averages of not less than three inhibition curves.

T1 sequence (Q8I6Z5 whole entry): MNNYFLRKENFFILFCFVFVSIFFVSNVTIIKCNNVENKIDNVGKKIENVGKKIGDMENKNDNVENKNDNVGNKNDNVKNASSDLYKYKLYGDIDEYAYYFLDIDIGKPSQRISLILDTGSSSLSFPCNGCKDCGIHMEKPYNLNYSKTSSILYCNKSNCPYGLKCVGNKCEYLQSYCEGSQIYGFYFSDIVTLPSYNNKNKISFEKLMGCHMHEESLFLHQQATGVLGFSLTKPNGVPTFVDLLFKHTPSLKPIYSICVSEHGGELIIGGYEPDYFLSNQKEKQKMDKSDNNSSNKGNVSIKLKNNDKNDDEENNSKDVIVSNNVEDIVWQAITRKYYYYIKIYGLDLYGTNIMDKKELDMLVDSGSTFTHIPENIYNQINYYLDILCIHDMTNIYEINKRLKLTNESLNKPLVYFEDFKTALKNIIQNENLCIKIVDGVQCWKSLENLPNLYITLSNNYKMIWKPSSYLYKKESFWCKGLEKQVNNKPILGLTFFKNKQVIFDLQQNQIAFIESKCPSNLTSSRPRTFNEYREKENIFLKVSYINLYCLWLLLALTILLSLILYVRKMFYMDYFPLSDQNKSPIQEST
T2 sequence (Q8I6Z5 whole entry): as above
Experimental for clone DC6: as §1, §2

`CC(C)C[C@H](NC(=O)[C@@H](N)CCCNC(=N)N)C(=O)N[C@@H](CC(C)C)C(O)CN[C@@H](C)C(=O)N[C@@H](CCC(=O)O)C(=O)N[C@@H](C)C(N)=O` (mixture of isomers) [Compound 1] gave an LD50 growth inhibition in series [1] of over 200 µM. The compound also had a Ki at Plasmepsin V (PmV) of 0.0002 µM. Also, the IC50 at Plasmepsin V (PmV) (setting [6]) came out at 0.00037 µM; at Plasmepsin V (PmV) (3 μM substrate), 0.000367 µM; at Plasmepsin V (PmV) (inhibitor added after the reaction was initiated), 0.000329 µM; at Plasmepsin V (PmV) (pre-mixing the enzyme with inhibitor), 0.000367 µM. Also, the “greater inhibition efficiency relative to WEHI916” value on Plasmepsin V (PmV) (side-by-side comparison) is ~ 100 fold. Besides, the logD in series [2] is -4.28. Besides, the “competition of Compound 36 binding to PmV” value on PmV-GFP (50 μM competitor) is “negatively affects the interaction between Compound 36 and PmV”.
On to `CC(C)C[C@H](NC(=O)[C@@H](N)CCCCN)C(=O)N[C@@H](CC(C)C)C(O)CN[C@@H](C)C(=O)N[C@@H](CCC(=O)O)C(N)=O` (mixture of isomers) [Compound 29], for which, in the series on HRPII PExEl processing, the “effect on natural processing of HRPII” value is listed as “inhibited”. Besides, the 20% effect concentration (IC20) is 7.68 µM in series [3]; 12.8 µM in the series with clone DC6; 25.1 µM in [5]; 14 µM in [1] (strain 3D7, parental line). The IC50 was 12.5 µM in series [3]; 18.5 µM with clone DC6; 27.5 µM in series [5]; 17.9 µM in series [1] (strain 3D7, parental line); 1.97 µM at Plasmepsin V (PmV) (setting [6]). Moreover, the IC80 in series [3] was determined as 20.2 µM; with clone DC6 it was 27.1 µM; in [5] it was 30.1 µM; in [1] (strain 3D7, parental line) it was 22.7 µM. The “effect on HRPII-GFP PExEl-dependent secretion” value in series [4] is reported as “impairment of HRPII-GFP PExEl-dependent secretion was observed”. Also, the LD50 growth inhibition in series [1] was ~ 15 μM and 15.2 μM. Besides, the “IC50 increase compared to Compound 13a” value on Plasmepsin V (PmV) is reported as 8 fold. Besides, affinity at Plasmepsin V (PmV) was put at a Ki of 1.06 µM. Further, in series [2], the logD is -5.99.
`CC(C)C[C@H](NC(=O)[C@H](CCCNC(=N)N)NC(=O)CCCNC(=O)CCCNC(=O)CCCC[C@@H]1SC[C@@H]2NC(=O)N[C@@H]21)C(=O)N[C@@H](CC(C)C)C(O)CN[C@@H](C)C(=O)N[C@@H](CCC(N)=O)C(=O)N[C@@H](C)C(=O)O` (stereo partly shown) [Compound 36]: the “interaction with PmV in pull-down / immuno-precipitation” value at PmV-GFP (DC6 lysate, 50 μM or streptavidin-resin bound) is “confirmed the interaction between our inhibitor and PmV”.
As to `CC(C)C[C@H](NC(=O)[C@@H](NC(=O)[C@H](CCCNC(=N)N)NS(=O)(=O)Cc1ccccc1)C(C)C)[C@@H](O)CC(=O)NCCc1ccccc1` [WEHI916, reference compound], the IC50 was 0.019 to 0.02 µM in the series on PmV and 0.0324 µM on Plasmepsin V (PmV) (setting [6]).
